Laboratory results as given in patent US10266497B2 (ABIDE THERAPEUTICS, INC., priority 2017, dated 2019).

How the values were obtained:
MAGL [1] = target: T1, MAGL (Mus musculus, UniProt O35678); test: In vitro competitive activity-based protein profiling, MAGL, mouse; details: read-out: MAGL % inh. 1 μM (mouse)
T1 sequence (O35678 1-303): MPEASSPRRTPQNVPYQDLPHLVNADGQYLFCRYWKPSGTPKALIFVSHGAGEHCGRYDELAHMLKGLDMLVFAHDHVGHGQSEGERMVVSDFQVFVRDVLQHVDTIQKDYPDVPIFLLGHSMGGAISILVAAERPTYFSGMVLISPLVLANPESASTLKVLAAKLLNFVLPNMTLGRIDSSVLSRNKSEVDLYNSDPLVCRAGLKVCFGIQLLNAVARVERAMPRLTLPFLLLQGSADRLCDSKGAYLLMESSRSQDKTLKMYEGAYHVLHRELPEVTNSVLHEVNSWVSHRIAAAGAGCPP

FAAH [2] = target: T2, FAAH (Homo sapiens, UniProt O00519); test: In vitro competitive activity-based protein profiling, FAAH, human; details: for inhibition at 1 µM: read-out: FAAH % inh. 1 μM (human)
T2 sequence (O00519 1-579): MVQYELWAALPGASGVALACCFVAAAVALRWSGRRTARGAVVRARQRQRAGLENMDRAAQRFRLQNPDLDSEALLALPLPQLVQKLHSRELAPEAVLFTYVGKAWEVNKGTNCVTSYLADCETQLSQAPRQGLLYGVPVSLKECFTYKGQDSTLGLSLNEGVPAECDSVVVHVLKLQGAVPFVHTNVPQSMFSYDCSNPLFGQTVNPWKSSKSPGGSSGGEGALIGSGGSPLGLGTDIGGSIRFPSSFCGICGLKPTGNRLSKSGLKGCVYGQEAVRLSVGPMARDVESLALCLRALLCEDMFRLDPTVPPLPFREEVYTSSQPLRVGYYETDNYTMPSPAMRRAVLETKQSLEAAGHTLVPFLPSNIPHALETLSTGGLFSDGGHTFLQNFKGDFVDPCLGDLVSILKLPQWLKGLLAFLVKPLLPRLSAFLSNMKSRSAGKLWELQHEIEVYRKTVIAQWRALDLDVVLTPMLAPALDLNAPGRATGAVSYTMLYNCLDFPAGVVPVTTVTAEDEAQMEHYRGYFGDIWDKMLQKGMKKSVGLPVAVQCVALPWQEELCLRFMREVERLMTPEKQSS

FAAH [3] = target: T3, FAAH (Mus musculus, UniProt O08914); test: In vitro competitive activity-based protein profiling, FAAH, mouse; details: read-out: FAAH % inh. 1 μM (mouse)
T3 sequence (O08914 1-579): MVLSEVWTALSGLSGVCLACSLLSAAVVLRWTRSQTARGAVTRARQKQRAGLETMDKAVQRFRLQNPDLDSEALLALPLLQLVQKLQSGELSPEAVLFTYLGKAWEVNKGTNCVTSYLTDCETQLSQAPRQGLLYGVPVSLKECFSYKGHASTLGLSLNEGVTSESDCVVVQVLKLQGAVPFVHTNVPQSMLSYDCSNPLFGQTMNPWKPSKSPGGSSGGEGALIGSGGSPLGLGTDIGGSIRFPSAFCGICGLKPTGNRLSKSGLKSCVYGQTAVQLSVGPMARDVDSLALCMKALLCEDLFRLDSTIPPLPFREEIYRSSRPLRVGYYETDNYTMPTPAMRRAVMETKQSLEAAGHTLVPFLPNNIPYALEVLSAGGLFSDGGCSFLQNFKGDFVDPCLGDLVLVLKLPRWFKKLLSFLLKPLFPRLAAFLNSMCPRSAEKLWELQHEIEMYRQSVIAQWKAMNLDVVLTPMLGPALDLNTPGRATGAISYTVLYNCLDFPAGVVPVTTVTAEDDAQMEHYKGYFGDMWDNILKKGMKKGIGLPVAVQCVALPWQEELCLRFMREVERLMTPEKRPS

MAGL [4] = target: T4, MAGL (Homo sapiens, UniProt Q99685); test: In vitro competitive activity-based protein profiling, MAGL, human; details: for inhibition at 1 µM: read-out: MAGL % inh. 1 μM (human)
T4 sequence (Q99685 1-303): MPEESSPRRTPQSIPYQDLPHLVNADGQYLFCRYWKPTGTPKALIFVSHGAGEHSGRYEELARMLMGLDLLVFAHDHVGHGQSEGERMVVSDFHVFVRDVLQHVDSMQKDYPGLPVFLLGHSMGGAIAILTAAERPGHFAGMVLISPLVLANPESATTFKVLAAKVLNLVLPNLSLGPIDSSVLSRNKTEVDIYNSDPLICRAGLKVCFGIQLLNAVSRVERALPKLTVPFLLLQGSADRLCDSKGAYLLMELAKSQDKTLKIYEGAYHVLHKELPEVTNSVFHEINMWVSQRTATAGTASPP

Cc1cc(-c2ccccc2)ccc1CN1CCN(C(=O)n2ccc(C(=O)O)n2)C(C)C1 (stereo not drawn) [Example 89, 1-(2-methyl-4-((3-methyl-[1,1′-biphenyl]-4-yl)methyl)piperazine-1-carbonyl)-1H-pyrazole-3-carboxylic acid]
inhibition at 1 µM (MAGL [1]): > 75%
IC50 (FAAH [2]): 0.1 to 1 µM
inhibition at 1 µM (FAAH [2]): > 75%
inhibition at 1 µM (FAAH [3]): > 75%
inhibition at 1 µM (MAGL [4]): > 75%

Cc1ccc(CN2CCN(C(=O)n3ccc(C(=O)O)n3)CC2)c(-c2nnco2)c1 [Example 66, 1-(4-(4-methyl-2-(1,3,4-oxadiazol-2-yl)benzyl)piperazine-1-carbonyl)-1H-pyrazole-3-carboxylic acid]
inhibition at 1 µM (MAGL [1]): > 75%
inhibition at 1 µM (FAAH [2]): 0 to 25%
inhibition at 1 µM (FAAH [3]): 0 to 25%
inhibition at 1 µM (MAGL [4]): > 75%

CN(Cc1cc(Cl)ccc1C(F)(F)F)CC1CCN(C(=O)n2ccc(C(=O)O)n2)CC1 [Example 209, 1-(4-(((5-chloro-2-(trifluoromethyl)benzyl)(methyl)amino)methyl)piper-idine-1-carbonyl)-1H-pyrazole-3-carboxylic acid]
inhibition at 1 µM (MAGL [1]): > 75%
IC50 (FAAH [2]): 0.1 to 1 µM
inhibition at 1 µM (FAAH [2]): > 75%
inhibition at 1 µM (FAAH [3]): > 75%
inhibition at 1 µM (MAGL [4]): > 75%

O=C(O)c1nn(C(=O)N2CCC3(CCCN3Cc3cc4ccc(C(F)(F)F)cc4s3)CC2)cc1C(F)(F)F [Example 149, 4-(trifluoromethyl)-1-(1-((6-(trifluoromethyl)benzo[b]thiophen-2-yl)methyl)-1,8-diazaspiro[4.5]decane-8-carbonyl)-1H-pyrazole-3-carboxylic acid]
inhibition at 1 µM (MAGL [1]): > 75%
IC50 (FAAH [2]): 1 to 10 µM
inhibition at 1 µM (FAAH [2]): 25 to 50%
inhibition at 1 µM (FAAH [3]): > 75%
IC50 (MAGL [4]): 0.1 to 1 µM
inhibition at 1 µM (MAGL [4]): > 75%

O=C(O)c1ccn(C(=O)N2CCC3(CCN(Cc4cc(F)cc(F)c4)C3)CC2)n1 [Example 79, 1-(2-(3,5-difluorobenzyl)-2,8-diazaspiro[4.5]decane-8-carbonyl)-1H-pyrazole-3-carboxylic acid]
inhibition at 1 µM (MAGL [1]): 0 to 25%
inhibition at 10 µM (FAAH [2]; read-out: FAAH % inh. (human) at 10 uM): 50 to 75%
inhibition at 1 µM (FAAH [3]): 0 to 25%
inhibition at 10 µM (MAGL [4]; read-out: MAGL % inh. (human) at 10 uM): > 75%

O=C(O)c1ccn(C(=O)N2CCC3(CCCN3Cc3ccc(C(F)(F)F)cc3N3C4CCC3COC4)CC2)n1 [Example 82, 1-(1-(2-(3-oxa-8-azabicyclo[3.2.1]octan-8-yl)-4-(trifluoromethyl)benzyl)-1,8-diazaspiro[4.5]decane-8-carbonyl)-1H-pyrazole-3-carboxylic acid]
inhibition at 1 µM (MAGL [1]): > 75%
inhibition at 1 µM (FAAH [2]): 0 to 25%
inhibition at 1 µM (FAAH [3]): 0 to 25%
inhibition at 1 µM (MAGL [4]): > 75%

O=C(O)c1ccn(C(=O)N2CCN(Cc3cc(N4CCCC4)cc(C(F)(F)F)c3)CC2)n1 [Example 87, 1-(4-(3-(pyrrolidin-1-yl)-5-(trifluoromethyl)benzyl)piperazine-1-carbonyl)-1H-pyrazole-3-carboxylic acid]
inhibition at 1 µM (MAGL [1]): > 75%
inhibition at 1 µM (FAAH [2]): 0 to 25%
inhibition at 1 µM (FAAH [3]): 0 to 25%
inhibition at 1 µM (MAGL [4]): > 75%

O=C(O)c1ccn(C(=O)N2C[C@H]3C[C@@H](OCc4cc(F)cc(Cl)c4)C[C@H]3C2)n1 [Example 193, 1-(cis-5-((3-chloro-5-fluorobenzyl)oxy)octahydrocyclopenta [c]pyrrole-2-carbonyl)-1H-pyrazole-3-carboxylic acid]
inhibition at 1 µM (MAGL [1]): 25 to 50%
inhibition at 1 µM (FAAH [2]): > 75%
inhibition at 1 µM (FAAH [3]): > 75%
inhibition at 1 µM (MAGL [4]): 25 to 50%

O=C(O)c1ccn(C(=O)N2CCC3(CCN(Cc4cc(Cl)cc(Cl)c4)C3)CC2)n1 [Example 162, 1-(2-(3,5-dichlorobenzyl)-2,8-diazaspiro[4.5]decane-8-carbonyl)-1H-pyrazole-3-carboxylic acid]
inhibition at 1 µM (MAGL [1]): > 75%
IC50 (FAAH [2]): 0.1 to 1 µM
inhibition at 1 µM (FAAH [2]): > 75%
inhibition at 1 µM (FAAH [3]): 25 to 50%
inhibition at 1 µM (MAGL [4]): > 75%

O=C(O)c1ccn(C(=O)N2C[C@H]3C[C@H](Oc4cccc(-c5ccccc5)c4)C[C@H]3C2)n1 [Example 125, 1-(trans-5-([1,1′-biphenyl]-3-yloxy)octahydro-cyclopenta[c]pyrrole-2-carbonyl)-1H-pyrazole-3-carboxylic acid]
inhibition at 1 µM (MAGL [1]): > 75%
inhibition at 1 µM (FAAH [2]): > 75%
inhibition at 1 µM (FAAH [3]): > 75%
inhibition at 1 µM (MAGL [4]): > 75%

NC(=O)c1ccn(C(=O)N2CCC3(CCCN3Cc3ccc(C(F)(F)F)cc3N3CCCC3)CC2)n1 [Example 174, 1-(1-(2-(pyrrolidin-1-yl)-4-(trifluoromethyl)benzyl)-1,8-diazaspiro[4.5]decane-8-carbonyl)-1H-pyrazole-3-carboxamide]
inhibition at 1 µM (MAGL [1]): > 75%
inhibition at 1 µM (FAAH [2]): 0 to 25%
inhibition at 1 µM (FAAH [3]): 25 to 50%
inhibition at 1 µM (MAGL [4]): > 75%

O=C(O)c1nn(C(=O)N2CC3CN(Cc4ccc(-c5cnc6ccccn56)cc4C(F)(F)F)CC3C2)cc1Cl (stereo not drawn) [Example 20, 4-Chloro-1-(5-(4-(imidazo[1,2-a]pyridin-3-yl)-2-(trifluoromethyl)benzyl)octahydropyrrolo[3,4-c]pyrrole-2-carbonyl)-1H-pyrazole-3-carboxylic Acid]
inhibition at 1 µM (MAGL [1]): > 75%
IC50 (FAAH [2]): 1 to 10 µM
inhibition at 1 µM (FAAH [2]): > 75%
inhibition at 1 µM (FAAH [3]): > 75%
IC50 (MAGL [4]): 0.1 to 1 µM
inhibition at 1 µM (MAGL [4]): > 75%

O=C(O)c1ccn(C(=O)N2CCC3(CCN(Cc4ccc(C(F)(F)F)c(Cl)c4)C3)CC2)n1 [Example 78, 1-(2-(3-chloro-4-(trifluoromethyl)benzyl)-2,8-diazaspiro[4.5]decane-8-carbonyl)-1H-pyrazole-3-carboxylic acid]
inhibition at 1 µM (MAGL [1]): > 75%
inhibition at 1 µM (FAAH [2]): 0 to 25%
inhibition at 1 µM (FAAH [3]): 0 to 25%
inhibition at 1 µM (MAGL [4]): > 75%

C[C@@H]1CCCCN1c1cc(C(F)(F)F)ccc1CN1CCN(C(=O)n2ccc(C(=O)O)n2)CC1 [Example 103, (R)-1-(4-(2-(2-methylpiperidin-1-yl)-4-(trifluoromethyl)benzyl)piperazine-1-carbonyl)-1H-pyrazole-3-carboxylic acid]
inhibition at 1 µM (MAGL [1]): > 75%
inhibition at 1 µM (FAAH [2]): 0 to 25%
inhibition at 1 µM (FAAH [3]): 0 to 25%
inhibition at 1 µM (MAGL [4]): > 75%

O=C(O)c1ccn(C(=O)N2CCC3(CCN(Cc4ccc(C(F)(F)F)cc4Cl)C3)CC2)n1 [Example 77, 1-(2-(2-chloro-4-(trifluoromethyl)benzyl)-2,8-diazaspiro[4.5]decane-8-carbonyl)-1H-pyrazole-3-carboxylic acid]
inhibition at 1 µM (MAGL [1]): > 75%
IC50 (FAAH [2]): 1 to 10 µM
inhibition at 1 µM (FAAH [2]): 0 to 25%
inhibition at 1 µM (FAAH [3]): 0 to 25%
inhibition at 1 µM (MAGL [4]): > 75%

CN(Cc1cccc(Cl)c1N1CCCC1)C1(C)CCN(C(=O)n2ccc(C(=O)O)n2)CC1 [Example 47, 1-(4-((3-chloro-2-(pyrrolidin-1-yl)benzyl)(methyl)amino)-4-methylpiperidine-1-carbonyl)-1H-pyrazole-3-carboxylic acid]
inhibition at 1 µM (MAGL [1]): > 75%
inhibition at 1 µM (FAAH [2]): 0 to 25%
inhibition at 1 µM (FAAH [3]): 0 to 25%
inhibition at 1 µM (MAGL [4]): > 75%
